Values quoted from earlier work in patent US20150045422A1 (priority 2005, published 2015).

Tests used:
[1] = test system: HL (lymphocyte)
[2] = test system: HeLa (uterine)
[3] = test system: HEK (kidney)
[4] = test system: Herpes Simplex Virus Type 2 (HSV2)
[5] = test system: HEp-2 cells
[6] = test system: HEp2 (epidermoid)

Compound: CC(=O)OC[C@]12C[C@H](O)C(C)=C[C@H]1O[C@@H]1[C@H](O)[C@@H](OC(C)=O)[C@@]2(C)[C@]12CO2 [NEOS, neosolaniol]
- PSR Potency in Human Cells (IC50) HL [1]: 0.05 µg/mL
- PSR Potency in Human Cells (IC50) HeLa [2]: 0.1 µg/mL
- PSR Potency in Human Cells (IC50) HEK [3]: 0.06 µg/mL
- PSR Potency in Human Cells (IC50) HSV2 [4]: 0.052 µg/mL
- concentrations that did not decrease cell viability [5]: below 200 ng/ml

Compound: CC1=C[C@H]2O[C@@H]3[C@H](O)[C@@H](O)[C@](C)([C@@]2(CO)[C@H](O)C1=O)[C@]31CO1 [NIV, Nivalenol]
- PSR Potency in Human Cells (IC50) HEp2 [6]: 0.225 µg/mL
- PSR Potency in Human Cells (IC50) HL [1]: 0.3 µg/mL
- PSR Potency in Human Cells (IC50) HeLa [2]: 0.3 µg/mL
- PSR Potency in Human Cells (IC50) HEK [3]: 1 µg/mL
- PSR Potency in Human Cells (IC50) HSV2 [4]: 0.05 µg/mL

Compound: Crotocin
- PSR Potency in Human Cells (IC50) HEp2 [6]: 0.25 µg/mL
- PSR Potency in Human Cells (IC50) HL [1]: 2 µg/mL
- PSR Potency in Human Cells (IC50) HeLa [2]: 0.5 µg/mL
- PSR Potency in Human Cells (IC50) HEK [3]: 0.6 µg/mL

Compound: CC(=O)O[C@@H]1[C@@H](O)[C@H]2O[C@@H]3C=C(C)C(=O)[C@@H](O)[C@]3(CO)[C@]1(C)[C@]21CO1 [FusX, Fusarenon-X]
- PSR Potency in Human Cells (IC50) HL [1]: 0.3 µg/mL
- PSR Potency in Human Cells (IC50) HeLa [2]: 0.1 µg/mL
- PSR Potency in Human Cells (IC50) HEK [3]: 1 µg/mL
- PSR Potency in Human Cells (IC50) HSV2 [4]: 0.026 µg/mL

Compound: CC1=C[C@H]2O[C@@H]3[C@H](O)C[C@](C)([C@@]2(CO)[C@H](O)C1=O)[C@]31CO1 [DON, Deoxynivalenol]
- PSR Potency in Human Cells (IC50) HEp2 [6]: 0.25 µg/mL
- PSR Potency in Human Cells (IC50) HL [1]: 0.5 µg/mL
- PSR Potency in Human Cells (IC50) HeLa [2]: 1 µg/mL
- PSR Potency in Human Cells (IC50) HEK [3]: 3 µg/mL
- PSR Potency in Human Cells (IC50) HSV2 [4]: 0.094 µg/mL
